# Measurements taken from patent US12162901B2, “N-acetylated sialic acids and related sialosides” (priority 2016, dated 2024).
# Tests used:
# [1] = tested on: A. ureafaciens sialidase; assay: Sialidase substrate specificity of Leg glycosides (HPLC/capillary electrophoresis), A. ureafaciens sialidase; type: biochemical, Arthrobacter ureafaciens; conditions: pH 5.5
# [2] = biological target: C. perfringens sialidase (CpNanH) (Clostridium perfringens, UniProt P10481); type: biochemical; conditions: 37° C., 16 hs, pH 5.0
# [3] = biological target: T1, BiNanH2 (Bifidobacterium longum, UniProt A0ACD7UU12); assay: Sialidase substrate specificity of Leg glycosides (HPLC/capillary electrophoresis), BiNanH2; type: biochemical, Bifidobacterium infantis; conditions: 37° C., 16 hs, pH 5.0
# T1 sequence (A0ACD7UU12 1-394): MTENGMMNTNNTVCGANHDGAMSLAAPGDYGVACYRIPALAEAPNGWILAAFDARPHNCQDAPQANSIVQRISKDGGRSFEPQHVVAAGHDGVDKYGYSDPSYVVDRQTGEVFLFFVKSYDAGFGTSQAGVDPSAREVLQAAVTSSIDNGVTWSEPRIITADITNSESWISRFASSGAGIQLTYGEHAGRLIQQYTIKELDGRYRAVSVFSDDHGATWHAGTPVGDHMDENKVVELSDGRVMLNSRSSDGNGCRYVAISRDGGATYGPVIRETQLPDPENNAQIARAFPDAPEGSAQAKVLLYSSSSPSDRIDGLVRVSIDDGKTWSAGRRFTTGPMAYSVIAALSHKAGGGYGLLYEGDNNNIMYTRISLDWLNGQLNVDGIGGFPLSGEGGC
# [4] = biological target: T2, human cytosolic sialidase hNEU2 (Homo sapiens, UniProt Q9Y3R4); assay: Sialidase substrate specificity of Leg glycosides (HPLC/capillary electrophoresis), hNEU2; type: biochemical; conditions: 37° C., 16 hs, pH 5.0
# T2 construct: made in house
# [5] = biological target: T3, V. cholerae sialidase (Vibrio cholerae serotype O1, UniProt P0C6E9); assay: Sialidase substrate specificity of Leg glycosides (HPLC/capillary electrophoresis), V. cholerae sialidase; type: biochemical; conditions: pH 5.5
# T3 construct: purchased Roche
# [6] = biological target: T4, SpNanA (Streptococcus pneumoniae, UniProt P62575); assay: Sialidase substrate specificity of Leg glycosides (HPLC/capillary electrophoresis), SpNanA; type: biochemical; conditions: 37° C., 16 hs, pH 6.0
# T4 construct: made in house
# [7] = biological target: SpNanC (Streptococcus pneumoniae, UniProt A0A0H2UQE4); assay: Sialidase substrate specificity of Leg glycosides (HPLC/capillary electrophoresis), SpNanC; type: biochemical; conditions: 37° C., 16 hs, pH 6.5
# [8] = biological target: T5, SpNanB (Streptococcus pneumoniae serotype 4, UniProt Q54727, E68D/K536E/K577E/N393D/S59P); assay: Sialidase substrate specificity of Leg glycosides (HPLC/capillary electrophoresis), SpNanB; type: biochemical; conditions: 37° C., 16 hs, pH 6.0
# T5 construct: made in house
# [9] = biological target: T6, wild-type PmST1 (α2-3-sialidase activity) (Pasteurella multocida, UniProt Q15KI8); assay: Sialidase substrate specificity of Leg glycosides (HPLC/capillary electrophoresis), PmST1; type: biochemical; conditions: 37° C., 16 hs, CMP (0.4 mM), pH 5.5
# T6 construct: made in house
# [10] = biological target: T7, PmST1 (α2-3-sialidase activity) (Pasteurella multocida, UniProt Q15KI8); assay: Kinetic studies for PmST1 α2-3-sialidase activity (HPLC); type: biochemical; conditions: 0.4 mM CMP
# T7 construct: made in house
# Method: Kinetic studies for PmST1 were performed in duplicates at 37° C. for 10 min. […] The reactions were stopped by adding 20 μL of pre-chilled ethanol. The mixtures were then centrifuged and the supernatants were analyzed by the HPLC system described above for sialidase substrate specificity studies assays. Apparent kinetic parameters were obtained by varying substrate concentrations from 0.1-40 mM (0.1, 0.2, 0.4, 1, 2, 4, 10, 20, and 40 mM) and fitting the data (the average values of duplicate assay results) into the Michaelis-Menten equation using Grafit 5.0.
# [11] = tested on: BJA-B K20 cells; assay: Feeding of free sialic acids to BJA-B K20 cells, PToV probes, flow cytometry; type: cell-based, human
# [12] = tested on: human CD22-Fc/Siglec-2; assay: Feeding of free sialic acids to BJA-B K20 cells, probing with human CD22-Fc, flow cytometry; type: cell-based; conditions: 3 mM, 3 days of feeding
# Method: Cell Culture and Sugar Supplementation.
# Flow Cytometry. Cells were washed with PBS and incubated with 10 μg/mL of PToV probes in PBS with 1% BSA and 10 mM EDTA for 30 minutes on ice. Subsequently, cells were washed with PBS and incubated with PE goat anti-human IgG antibody for 30 minutes on ice. After an additional washing step, the cells were analyzed by FACSCalibur (BD).
# After 3 days of feeding, BJA-B K20 cells were probed with human CD22-Fc/Siglec-2 to detect ligands (FIG. 7). […] However, when the cells were grown in the presence of Neu5Ac9NAc, the expression of the CD22 ligand was minimal (FIG. 7C). […] This supports previous observations that human CD22-Fc recognizes α2-6-linked sialosides with Neu5Ac or N-glycolylneuraminic acid (Neu5Gc) as the preferred naturally existing sialic acid form and 9-O-acetyl modification on sialic acid blocks the binding.
# [13] = tested on: BJA-B K20 cells; assay: Feeding of free sialic acids to BJA-B K20 cells, DMB derivatization and HPLC of membrane sialic acids; conditions: 1 mM for 3 days; sialic acids released with Vibrio cholerae neuraminidase
# [14] = tested on: human Siglec-9-Fc (hSiglec-9); assay: Sialoglycan microarray binding of human Siglec-9-Fc; conditions: without esterase treatment (FIG. 3A)
# Method: The synthesized glycan Neu5Ac9NAcα3Galβ4GlcβProNH2 was used in a glycan library for glycan microarray studies. Glycan microarrays were fabricated using epoxide-derivatized slides (Corning by Thermo Fisher Scientific) and Arrayit SpotBot® Extreme Microarray Spotter. The arrays were printed with Stealth SMP3 microarray spotting pins from ArrayIt (Sunnyvale, CA, USA) generating 100 μm diameter spots. 4 pins were used; with each pin printing 4 replicate spots/well. The glycoconjugates were prepared at 100 μM concentration in an optimized printing buffer (300 mM phosphate buffer, pH 8.4). They were then distributed into a 384-well source plate in 20 μL per well. To monitor printing quality, 4 replicate-wells of human IgG (Jackson ImmunoResearch) was used at 100 μg/ml (in PBS) for each printing-pin. One complete array was printed on each slide (within approx 12 hour/˜28 slides). The humidity level in the arraying chamber was maintained at about 60-65% during printing. Printed slides were left on spotter deck overnight, allowing humidity to drop to ambient levels. Printed glycan microarray slides were blocked by 50° C. pre-warmed blocking solution (0.1 M Tris-HCl, 0.05 M ethanolamine, pH 9.0, 1 h). They were then washed twice with 50° C. pre-warmed water and dried. Slides were packed, vacuum-sealed and stored at RT until used.
# (§1) To assure the quality of the printed slides, one or two slides were used for quality control using antibodies, lectins and serum samples with known glycan binding specificity. For glycan array binding, slides were fitted in a multi-well microarray hybridization cassette (AHC4X8S, ArrayIt, Sunnyvale, CA, USA) to divide into 8 subarrays. The subarrays were blocked with Ovalbumin (1% w/v) in PBS (pH 7.4) for 1 h at RT, with gentle shaking. […] The data were further analyzed with Excel. […] The binding specificity to glycoconjugates for each protein was plotted based on the RFU (Relative Fluorescence Units), average fluorescence value for 4 replicates, versus glycan IDs. The standard deviations were calculated and the error bars were found for each glycan binding. […]
# [15] = tested on: porcine torovirus hemagglutinin-esterase (PToV-P4-Fc, esterase inactivated); assay: Sialoglycan microarray binding of PToV-P4-Fc (esterase inactive); conditions: without esterase treatment (FIG. 3A)
# [16] = De-O-acetylation of 9-OAc glycan during glycan microarray process (DMB derivatization, HPLC); type: physicochemical
# [17] = tested on: PToV-P4-Fc (esterase active); assay: Treatment of glycan microarray with esterase active PToV, then probe binding; type: biochemical, porcine torovirus; conditions: 20 μg/mL PToV-P4-Fc (esterase active), 2 h, RT; FIG. 3B vs FIG. 3A
# Method: as §1, with “shaking. For the esterase activity studies on the array, after removing the blocking solution, slides were first treated with 20 μg/mL PToV-P4-Fc (esterase active) in blocking buffer for 2 h at RT and then washed with PBS in 0.1% Tween 20 and then PBS (10 min/wash with shaking). Subsequently, diluted protein samples in blocking solution with various concentrations were added to each subarray (both esterase treated and non-treated slides). After incubating the protein samples for 2 h at RT with gentle shaking, the slides were washed with PBS in 0.1% Tween 20 and then PBS (10 min/wash with shaking).” for “shaking.”
# T2 sequence (Q9Y3R4 whole entry): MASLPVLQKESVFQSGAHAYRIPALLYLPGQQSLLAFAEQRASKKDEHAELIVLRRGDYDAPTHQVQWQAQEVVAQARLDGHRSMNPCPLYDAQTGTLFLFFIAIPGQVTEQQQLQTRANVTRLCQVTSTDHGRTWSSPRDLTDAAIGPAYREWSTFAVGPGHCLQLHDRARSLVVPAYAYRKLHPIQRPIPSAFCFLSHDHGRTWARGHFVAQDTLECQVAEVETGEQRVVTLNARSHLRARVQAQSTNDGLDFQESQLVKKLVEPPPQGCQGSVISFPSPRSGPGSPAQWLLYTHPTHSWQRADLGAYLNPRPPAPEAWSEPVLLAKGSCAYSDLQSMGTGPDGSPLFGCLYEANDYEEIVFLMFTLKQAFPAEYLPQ
smiles,measurement,setting,value
"C[C@@H](O)[C@@H](N=[N+]=[N-])C1O[C@@](OC2C(O)[C@H](Oc3ccc([N+](=O)[O-])cc3)OC(CO)[C@@H]2O)(C(=O)O)CC(O)[C@H]1N=[N+]=[N-] (stereo partly drawn) [3-13, Leg5,7diN3α2-3GalβpNP]",activity of A. ureafaciens sialidase for the compound,[1],did not show activity
same,activity of C. perfringens sialidase (CpNanH) for the compound,[2],did not show activity
same,activity of BiNanH2 for the compound,[3],did not show activity
same,activity of hNEU2 for the compound,[4],did not show activity
same,activity of V. cholerae sialidase for the compound,[5],did not show activity
same,activity of SpNanA for the compound,[6],did not show activity
same,activity of SpNanC for the compound,[7],did not show activity
same,activity of SpNanB for the compound,[8],did not show activity
same,substrate for the α2-3-sialidase activity of wild-type PmST1,[9],not
"CC(=O)N[C@@H]1C(O)C[C@](OC2C(O)[C@H](Oc3ccc([N+](=O)[O-])cc3)OC(CO)[C@@H]2O)(C(=O)O)OC1[C@H](NC(C)=O)[C@@H](C)O (stereo partly drawn) [3-19, Leg5,7Ac2α2-3GalβpNP]",activity of A. ureafaciens sialidase for the compound,[1],did not show activity
same,activity of C. perfringens sialidase (CpNanH) for the compound,[2],did not show activity
same,activity of BiNanH2 for the compound,[3],did not show activity
same,activity of hNEU2 for the compound,[4],did not show activity
same,activity of V. cholerae sialidase for the compound,[5],did not show activity
same,activity of SpNanA for the compound,[6],did not show activity
same,"α2-3-sialidase activity of PmST1, fold less efficient than for Neu5Acα2-3GalβpNP",[10],about 30 fold
same,activity of SpNanC for the compound,[7],did not show activity
same,activity of SpNanB for the compound,[8],did not show activity
"CC(=O)N[C@H]1[C@H]([C@H](O)[C@H](O)COC(C)=O)OC(O)(C(=O)O)C[C@@H]1O (stereo partly drawn) [Neu5,9Ac2, 9-O-acetyl-N-acetylneuraminic acid]",turnover on cell surface,"[11]; 1 mM for two days, then sugar removed, monitored for 4 days with PToV (esterase inactive) probe",faster than that of Neu5Ac9NAc
same,cell surface incorporation detected with PToV probe,"[11]; 1 mM free sialic acid, three days of feeding",detected on the cell surface
same,expression of CD22 ligand on fed cells,[12],between the two
same,incorporation on the cell membrane (DMB-HPLC),[13],showed incorporation
"CC(=O)N[C@H]1[C@H]([C@H](O)[C@H](O)COC(C)=O)O[C@@](O[C@H]2[C@@H](O)[C@@H](CO)O[C@@H](O[C@H]3[C@H](O)[C@@H](O)[C@H](OCCCN)O[C@@H]3CO)[C@@H]2O)(C(=O)O)C[C@@H]1O [Neu5,9Ac2α3Galβ4GlcβProNH2]",binding of hSiglec-9 on glycan microarray,[14],observable binding
same,binding of PToV on glycan microarray,[15],slightly stronger binding to the 9OAc derivative
same,loss of the OAc group,[16]; AUS treatment followed by DMB derivatization at low temperature (FIG. 2B),1.5%
same,OAc group lost from the 9-position of Neu5Ac or migrated to 7- and 8-positions,"[16]; release of sialic acids with acetic acid, DMB derivatization, HPLC (FIG. 2A)",~45%
same,sialic acid de-O-acetylated,"[16]; standard blocking condition (ethanolamine in Tris-HCl buffer, pH 9.0)",about 5%
same,OAc group released,[16]; stock solution after three months at −20° C. and a few freeze-thaw cycles,4%
same,loss of OAc,[16]; storage in phosphate buffer (pH 8.4) at room temperature,about 3%
same,stability of the 9-modification towards esterase active PToV,[17],esterase lability of 9OAc
"CC(=O)NC[C@@H](O)[C@@H](O)[C@@H]1O[C@@](O[C@H]2[C@@H](O)[C@@H](CO)O[C@@H](O[C@H]3[C@H](O)[C@@H](O)[C@H](OCCCN)O[C@@H]3CO)[C@@H]2O)(C(=O)O)C[C@H](O)[C@H]1NC(C)=O [Neu5Ac9NAcα3Galβ4GlcβProNH2, 3-Aminopropyl O-(5,9-Diacetamido-3,5,9-trideoxy-D-glycero-α-D-galacto-2-nonulopyranosylonic acid)-(2→3)-O-β-D-galactopyranosyl-(1→4)-β-D-glucopyranoside]",binding of hSiglec-9 on glycan microarray,[14],observable binding
same,binding of PToV on glycan microarray,[15],prefer binding
same,stability of the 9-modification towards esterase active PToV,[17],stability of 9NAc
"CC(=O)N[C@H]1[C@H]([C@H](O)[C@H](O)CO)OC(O)(C(=O)O)C[C@@H]1O (stereo partly drawn) [Neu5Ac, N-acetylneuraminic acid]",expression of CD22 ligand on fed cells,[12],high expression of CD22 ligand
same,incorporation on the cell membrane (DMB-HPLC),[13],showed incorporation
CC(=O)N[C@H]1[C@H]([C@H](O)[C@H](O)CO)O[C@@](O[C@H]2[C@@H](O)[C@@H](CO)O[C@@H](O[C@H]3[C@H](O)[C@@H](O)[C@H](OCCCN)O[C@@H]3CO)[C@@H]2O)(C(=O)O)C[C@@H]1O [Neu5Acα3Galβ4GlcβProNH2],binding of hSiglec-9 on glycan microarray,[14],prefers binding
